For 59 molecules, EC50 results are on record in patent US7807676B2, “Diketo-Piperazine and Piperidine derivatives as antiviral agents” (priority 2006, dated 2010).

Structures are written as SMILES. Some results are limits rather than exact numbers.

This experiment has as its system HIV-1 single-round infectious reporter virus. The experiment can be described thus: Single-round infectious HIV-1 luciferase reporter virus infection of HeLa CD4 cells (antiviral EC50). It is filed as cell-based. The note with it: Human immunodeficiency virus 1, HeLa, read-out: EC50 Group from Table 3. A digest of the protocol:
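Compound (≤10 μM final, 10 concentrations) was added to HeLa CD4 cells together with luciferase-reporter HIV-1 pseudovirus (nef replaced by luciferase, envelope supplied in trans) at MOI ~0.01. Cells were lysed 72 h post-infection at 37 °C for luminescence; percent inhibition versus untreated infection, fitted four-parameter logistic for EC50.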
Background: In a reporter assay the amount or activity of a reporter protein is the signal.
One may read the EC50 as the concentration needed to bring the measured effect to its halfway point. `COc1cnc(-n2cnc(C)n2)c2[nH]cc(C(=O)C(=O)N3CCN(C4=C(c5ccccc5)C(=O)c5ccccc54)CC3)c12` [D-7]: the EC50 was less than 500 nM.

As to `CCOC(=O)c1cccnc1N1CCN(C(=O)C(=O)c2c[nH]c3c(-n4cnc(C)n4)ncc(OC)c23)CC1` [D-8], the EC50 was less than 500 nM.

For the molecule `COc1cnc(-n2cnc(C)n2)c2[nH]cc(C(=O)C(=O)N3CCN(c4nc5ccccc5nc4-n4nc(C)cc4C)CC3)c12` [D-9], the EC50 was more than 500 nM.

Regarding `COc1cnc(-n2cnc(C)n2)c2[nH]cc(C(=O)C(=O)N3CCN(c4nc(C)nc5scc(-c6ccccc6)c45)C[C@H]3C)c12` [D-10], the EC50 was less than 500 nM.

Take `COc1cnc(-n2cnc(C)n2)c2[nH]cc(C(=O)C(=O)N3CCN(c4ncnc5cc(-c6ccccc6)sc45)C[C@H]3C)c12` [D-11]: the EC50 is more than 500 nM.

Consider `COc1cnc(-n2cnc(C)n2)c2[nH]cc(C(=O)C(=O)N3CCN(c4ncccc4N4CC(C)(C)C4=O)C[C@H]3C)c12` [D-12], for which the EC50 is more than 500 nM.

For the molecule `COc1cnc(-n2cnc(C)n2)c2[nH]cc(C(=O)C(=O)N3CCN(c4ncccc4C(=O)N4CCOCC4)C[C@H]3C)c12` [D-13], the 50% effective concentration (EC50) is more than 500 nM.

`COc1cnc(-n2cnc(C)n2)c2[nH]cc(C(=O)C(=O)N3CCN(c4snnc4-c4ccccc4)C[C@H]3C)c12` [D-14]: the EC50 was less than 500 nM.

Turning to `COc1cnc(-n2cnc(C)n2)c2[nH]cc(C(=O)C(=O)N3CCN(c4ncccc4-c4nc5ccccc5s4)CC3)c12` [D-15], the EC50 was less than 500 nM.

Take `COc1cnc(-n2cnc(C)n2)c2[nH]cc(C(=O)C(=O)N3CCN(c4ncccc4C(=O)NCc4ccccc4)CC3)c12` [D-16]: the EC50 is more than 500 nM.

Take `CCOc1nccnc1N1CCN(C(=O)C(=O)c2c[nH]c3c(-n4cnc(C)n4)ncc(OC)c23)CC1` [D-17]: the EC50 was less than 500 nM.

With `COc1cnc(-n2cnc(C)n2)c2[nH]cc(C(=O)C(=O)N3CCN(c4nsnc4Cl)CC3)c12` [D-20], the EC50 is less than 500 nM.

Consider `COc1cnc(-n2cnc(C)n2)c2[nH]cc(C(=O)C(=O)N3CCN(c4ncccc4C(=O)Nc4ccccc4)CC3)c12` [D-22], for which the EC50 was more than 500 nM.

Take `O=C1C(c2ccccc2)=C(N2CCN(C(=O)C(=O)c3c[nH]c4c(-n5ccnn5)ncc(F)c34)CC2)c2ccccc21` [D-23]: the EC50 was less than 500 nM.

Regarding `CCOC(=O)c1cccnc1N1CCN(C(=O)C(=O)c2c[nH]c3c(-n4ccnn4)ncc(F)c23)CC1` [D-24], the EC50 was less than 500 nM.

Turning to `Cc1nc(N2CCN(C(=O)C(=O)c3c[nH]c4c(-n5ccnn5)ncc(F)c34)[C@H](C)C2)c2c(-c3ccccc3)csc2n1` [D-26], the EC50 was more than 500 nM.

Consider `C[C@@H]1CN(c2ncnc3cc(-c4ccccc4)sc23)CCN1C(=O)C(=O)c1c[nH]c2c(-n3ccnn3)ncc(F)c12` [D-27], for which the EC50 is less than 500 nM.

Consider `C[C@@H]1CN(c2ncccc2N2CC(C)(C)C2=O)CCN1C(=O)C(=O)c1c[nH]c2c(-n3ccnn3)ncc(F)c12` [D-28], for which the EC50 was more than 500 nM.

With `C[C@@H]1CN(c2ncccc2C(=O)N2CCOCC2)CCN1C(=O)C(=O)c1c[nH]c2c(-n3ccnn3)ncc(F)c12` [D-29], the EC50 was more than 500 nM.

Turning to `C[C@@H]1CN(c2snnc2-c2ccccc2)CCN1C(=O)C(=O)c1c[nH]c2c(-n3ccnn3)ncc(F)c12` [D-30], the concentration giving a half-maximal response (EC50) was less than 500 nM.

With `O=C(C(=O)N1CCN(c2ncccc2-c2nc3ccccc3s2)CC1)c1c[nH]c2c(-n3ccnn3)ncc(F)c12` [D-31], the EC50 was more than 500 nM.

Regarding `O=C(c1ccccn1)c1cccnc1N1CCN(C(=O)C(=O)c2c[nH]c3c(-n4ccnn4)ncc(F)c23)CC1` [D-32], the EC50 was less than 500 nM.

On to `O=C(c1nccs1)c1cccnc1N1CCN(C(=O)C(=O)c2c[nH]c3c(-n4ccnn4)ncc(F)c23)CC1` [D-33], for which the EC50 was less than 500 nM.

For the molecule `O=C(NC1CCCCC1)c1cccnc1N1CCN(C(=O)C(=O)c2c[nH]c3c(-n4ccnn4)ncc(F)c23)CC1` [D-34], the EC50 was less than 500 nM.

As for `CC(C)Oc1nccnc1N1CCN(C(=O)C(=O)c2c[nH]c3c(-n4ccnn4)ncc(F)c23)CC1` [D-35], the EC50 is less than 500 nM.

For the molecule `C[C@@H]1CN(c2nn(C)c(=O)cc2-c2ccccc2)CCN1C(=O)C(=O)c1c[nH]c2c(-n3ccnn3)ncc(F)c12` [D-36], the EC50 is more than 500 nM.

In the case of `CN(C)CCCNC(=O)c1cccnc1N1CCN(C(=O)C(=O)c2c[nH]c3c(-n4ccnn4)ncc(F)c23)CC1` [D-37], the EC50 is more than 500 nM.

Regarding `O=C(C(=O)N1CCN(c2ncccc2C(=O)N2CCOCC2)CC1)c1c[nH]c2c(-n3ccnn3)ncc(F)c12` [D-38], the EC50 is more than 500 nM.

As to `Cc1cc(NC(=O)c2cccnc2N2CCN(C(=O)C(=O)c3c[nH]c4c(-n5ccnn5)ncc(F)c34)CC2)no1` [D-39], the EC50 was more than 500 nM.

For `CCOC(=O)CCC(=O)c1cccnc1N1CCN(C(=O)C(=O)c2c[nH]c3c(-n4ccnn4)ncc(F)c23)CC1` [D-40], the EC50 was more than 500 nM.

Turning to `CCOC(=O)CCCC(=O)c1cccnc1N1CCN(C(=O)C(=O)c2c[nH]c3c(-n4ccnn4)ncc(F)c23)CC1` [D-41], the EC50 is more than 500 nM.

As for `CCOC(=O)CCCCC(=O)c1cccnc1N1CCN(C(=O)C(=O)c2c[nH]c3c(-n4ccnn4)ncc(F)c23)CC1` [D-42], the EC50 is more than 500 nM.

Consider `CCOC(=O)CCCCCC(=O)c1cccnc1N1CCN(C(=O)C(=O)c2c[nH]c3c(-n4ccnn4)ncc(F)c23)CC1` [D-43], for which the 50% effective concentration (EC50) is more than 500 nM.

Turning to `CCOC(=O)CCCCCCC(=O)c1cccnc1N1CCN(C(=O)C(=O)c2c[nH]c3c(-n4ccnn4)ncc(F)c23)CC1` [D-44], the EC50 was more than 500 nM.

In the case of `N#CCCC(=O)c1cccnc1N1CCN(C(=O)C(=O)c2c[nH]c3c(-n4ccnn4)ncc(F)c23)CC1` [D-45], the EC50 was more than 500 nM.

Consider `N#CCCCC(=O)c1cccnc1N1CCN(C(=O)C(=O)c2c[nH]c3c(-n4ccnn4)ncc(F)c23)CC1` [D-46], for which the EC50 is more than 500 nM.

On to `O=C(C(=O)N1CCN(c2nsnc2N2CCCC2)CC1)c1c[nH]c2c(-n3ccnn3)ncc(F)c12` [D-47], for which the EC50 is less than 500 nM.

On to `N#Cc1cccc(CC(=O)c2cccnc2N2CCN(C(=O)C(=O)c3c[nH]c4c(-n5ccnn5)ncc(F)c34)CC2)c1` [D-48], for which the EC50 was less than 500 nM.

Turning to `COc1cnc(-n2cnc(C)n2)c2[nH]cc(C(=O)C(=O)N3CCN(c4nccnc4OC(C)C)CC3)c12` [D-49], the half-maximal effective concentration (EC50) was less than 500 nM.

In the case of `COc1cnc(-n2cnc(C)n2)c2[nH]cc(C(=O)C(=O)N3CCN(c4nn(C)c(=O)cc4-c4ccccc4)C[C@H]3C)c12` [D-50], the EC50 is more than 500 nM.

Turning to `COc1cnc(-n2cnc(C)n2)c2[nH]cc(C(=O)C(=O)N3CCN(c4ncccc4C(=O)NCCCN(C)C)CC3)c12` [D-51], the EC50 was more than 500 nM.

`O=C(C(=O)N1CCN(c2nnnn2-c2ccccn2)CC1)c1c[nH]c2c(-n3ccnn3)ncc(F)c12` [E-1, 1-(4-fluoro-7-(1H-1,2,3-triazol-1-yl)-1H-pyrrolo[2,3-c]pyridinyl-3-yl)-2-(4-(1-(pyridin-2-yl)-1H-tetrazol-5-yl)piperazin-1-yl)ethane-1,2-dione]: the EC50 was less than 500 nM.

On to `COc1cnc(-n2cnc(C)n2)c2[nH]cc(C(=O)C(=O)N3CCN(c4nnnn4-c4ccccn4)CC3)c12` [E-2], for which the EC50 is less than 500 nM.

On to `O=C(C(=O)N1CCN(c2nnnn2-c2cccnc2)CC1)c1c[nH]c2c(-n3ccnn3)ncc(F)c12` [E-3], for which the EC50 is less than 500 nM.

Regarding `O=C(C(=O)N1CCN(c2nnnn2-c2nccs2)CC1)c1c[nH]c2c(-n3ccnn3)ncc(F)c12` [E-4], the EC50 is less than 500 nM.

Turning to `COc1cnc(-n2cnc(C)n2)c2[nH]cc(C(=O)C(=O)N3CCN(c4nnnn4-c4nccs4)CC3)c12` [E-5], the EC50 is less than 500 nM.

`O=C(C(=O)N1CCN(c2nnnn2-c2ncco2)CC1)c1c[nH]c2c(-n3ccnn3)ncc(F)c12` [E-6]: the EC50 was less than 500 nM.

For the molecule `COc1cnc(-n2cnc(C)n2)c2[nH]cc(C(=O)C(=O)N3CCN(c4nnnn4-c4ncco4)CC3)c12` [E-7], the EC50 was less than 500 nM.

For `O=C(C(=O)N1CCN(c2nnnn2C2CCCCC2)CC1)c1c[nH]c2c(-n3ccnn3)ncc(F)c12` [E-8], the EC50 is less than 500 nM.

Turning to `COc1cccc(-n2nnnc2N2CCN(C(=O)C(=O)c3c[nH]c4c(-n5ccnn5)ncc(F)c34)CC2)c1` [E-9], the half-maximal effective concentration (EC50) was less than 500 nM.

As to `COc1ccc(-n2nnnc2N2CCN(C(=O)C(=O)c3c[nH]c4c(-n5ccnn5)ncc(F)c34)CC2)cc1` [E-10], the EC50 was more than 500 nM.

With `N#Cc1cccc(-n2nnnc2N2CCN(C(=O)C(=O)c3c[nH]c4c(-n5ccnn5)ncc(F)c34)CC2)c1` [E-11], the EC50 was more than 500 nM.

In the case of `N#Cc1ccc(-n2nnnc2N2CCN(C(=O)C(=O)c3c[nH]c4c(-n5ccnn5)ncc(F)c34)CC2)cc1` [E-12], the EC50 is more than 500 nM.

For the molecule `COc1cnc(-n2cnc(C)n2)c2[nH]cc(C(=O)C(=O)N3CCN(c4nnnn4-c4cccc(F)n4)CC3)c12` [E-12a], the EC50 is less than 500 nM.

On to `COc1cnc(-n2cnc(C)n2)c2[nH]cc(C(=O)C(=O)N3CCN(c4nnnn4-c4cccc(N)n4)CC3)c12` [E-12b], for which the EC50 was less than 500 nM.

In the case of `COc1cnc(-n2cnc(C)n2)c2[nH]cc(C(=O)C(=O)N3CCN(c4nnnn4-c4cccc(O)n4)CC3)c12` [E-12c], the EC50 was less than 500 nM.

As for `COc1cnc(-n2cnc(C)n2)c2[nH]cc(C(=O)C(=O)N3CCN(c4nnnn4-c4cccnn4)CC3)c12` [E-12d], the EC50 was less than 500 nM.

For `O=C(C(=O)N1CCN(c2ccnn2-c2ccccn2)CC1)c1c[nH]c2c(-n3ccnn3)ncc(F)c12` [E-14, 1-(4-fluoro-7-(1H-1,2,3-triazol-1-yl)-1H-pyrrolo[2,3-c]pyridinyl-3-yl)-2-(4-(1-(pyridin-2-yl)-1H-pyrazol-5-yl)piperazin-1-yl)ethane-1,2-dione], the EC50 is less than 500 nM.

As for `COc1cnc(-n2cnc(C)n2)c2[nH]cc(C(=O)C(=O)N3CCN(c4ccnn4-c4ccccn4)CC3)c12` [E-15, 1-(4-methoxy-7-(3-methyl-1H-1,2,4-triazol-1-yl)-1H-pyrrolo[2,3-c]pyridinyl-3-yl)-2-(4-(1-(pyridin-2-yl)-1H-pyrazol-5-yl)piperazin-1-yl)ethane-1,2-dione], the EC50 is less than 500 nM.
